According to patent US20060276465A1, “1,2-di(cyclic) substituted benzene compounds” (Eisai R&D Management Co., Ltd., priority 2003, published 2006):
Structures can show the parent of a compound that is named as a salt.

Key:
[1] = test system: Jurkat cells; assay: Jurkat cell adhesion system (adhesion to immobilized human fibronectin, PMA-stimulated); assay type: cell-based; conditions: concentration inhibiting by 50% the PMA-stimulated increase in adhered Jurkat cells on human fibronectin
Source text: The “C1-6 haloalkyl” of Group A1 and Group A2 (mentioned below) is aforementioned “C1-6 alkyl” having 1-6 aforementioned “halogen” bonded thereto, as examples there may be mentioned straight-chain or branched-chain alkyl groups such as methyl, ethyl, n-propyl, isopropyl, n-butyl, isobutyl, s-butyl, t-butyl, pentyl, isopentyl, 2-methylbutyl, neopentyl, 1-ethylpropyl, hexyl, isohexyl, 4-methylpentyl, 3-methylpentyl, 2-methylpentyl, 1-methylpentyl, 3,3-dimethylbutyl, 2,2-dimethylbutyl, 1,1-dimethylbutyl, 1,2-dimethylbutyl, 1,3-dimethylbutyl, 2,3-dimethylbutyl, 1-ethylbutyl or 2-ethylbutyl, having fluorine or chlorine bonded thereto, among which C1-4 alkyl having 1 to 3 fluorine or chlorine bonded thereto is preferred, and trifluoromethyl is particularly preferred.
As examples of the “C2-7 alkylene”, where C2-7 alkylene is permissible only in the case that a spiro union is formed together with the substituted 5- to 10-membered cycloalkyl or the substituted 5- to 10-membered cycloalkenyl, of Group A1 and Group A2 (mentioned below), there may be mentioned straight-chain or branched-chain groups such as 1,2-ethylene, trimethylene, propylene, ethylethylene, tetramethylene, pentamethylene, hexamethylene or heptamethylene, among which 1,2-ethylene, trimethylene, tetramethylene or pentamethylene is preferred, and 1,2-ethylene, tetramethylene or pentamethylene is particularly preferred.
As examples of the “halogen” of Group W1 there may be mentioned the same ones listed above, among which fluorine or chlorine is preferred.
As examples of the “C1-6 alkyl” of Group W1 there may be mentioned the same ones listed above, among which C1-4 groups are preferred, and methyl or ethyl is particularly preferred.
The “C2-7 alkoxyalkyl” of Group W1 is aforementioned “C1-6 alkyl” having the aforementioned “C1-6 alkoxy” bonded thereto, of 2 to 7 carbon (total number of carbon), and as examples there may be mentioned methoxymethyl, methoxyethyl, ethoxyethyl, methoxypropyl or propoxyethyl, among which methoxymethyl is preferred.
As examples of the “C1-6 alkoxy” of the “C1-6 alkoxy optionally substituted with a substituent selected from Group T1” of Group W1 there may be mentioned the same ones listed above, among which C1-4 groups are preferred, and methoxy, ethoxy, isopropoxy or propoxy is particularly preferred.

[2] = test system: human peripheral blood neutrophils; assay: Human peripheral blood neutrophil adhesion system (adhesion to HUVEC immobilized plate, PMA-stimulated); assay type: cell-based; conditions: concentration inhibiting by 50% the PMA-stimulated increase in neutrophils adhered to HUVEC
Source text: As examples of the “C2-7 alkylcarbonyl” of Group W1 there may be mentioned the same ones listed above, among which C2-5 groups are preferred, and acetyl is particularly preferred.
As examples of the “C1-6 alkyl” for R^6X and R^7X there may be mentioned the same ones listed above.
As examples of the “halogen” of Group C1 there may be mentioned the same ones listed above, among which bromine, fluorine or chlorine is preferred.
As examples of the “C1-6 alkyl” of Group C1 there may be mentioned the same ones listed above, among which C1-4 groups are preferred, and methyl is particularly preferred.
As examples of the “C1-6 alkoxy” of Group C1 there may be mentioned the same ones listed above, among which C1-4 groups are preferred, and methoxy or ethoxy is particularly preferred.
As examples of the “halogen” of Group D1 and Group D2 (mentioned below) there may be mentioned the same ones listed above, among which fluorine or chlorine is preferred.
As examples of the “C1-6 alkoxy” of Group D1 and Group D2 (mentioned below) there may be mentioned the same ones listed above, among which C1-4 groups are preferred, and methoxy or ethoxy is particularly preferred.
The “C1-6 alkylthio” of Group D1 is a thio group having the aforementioned “C1-6 alkyl” bonded thereto, and as examples there may be mentioned straight-chain or branched-chain groups such as methylthio, ethylthio, propylthio, isopropylthio, […], isobutylthio, s-butylthio, t-butylthio, pentylthio, isopentylthio, 2-methylbutylthio, neopentylthio, 1-ethylpropylthio, hexylthio, isohexylthio, 4-methylpentylthio, 3-methylpentylthio, 2-methylpentylthio, 1-methylpentylthio, 3,3-dimethylbutylthio, 2,2-dimethylbutylthio, 1,1-dimethylbutylthio, 1,2-dimethylbutylthio, 1,3-dimethylbutylthio, 2,3-dimethylbutylthio, 1-ethylbutylthio or 2-ethylbutylthio, among which C1-4 groups are preferred, and methylthio or ethylthio is particularly preferred.
As examples of the “C1-6 alkylsulfonyl” of Group D1 there may be mentioned the same ones listed above, among which C1-4 groups are preferred, and methylsulfonyl or ethylsulfonyl is particularly preferred.
The “C1-6 alkylsulfinyl” of Group D1 is a sulfinyl group having the aforementioned “C1-6 alkyl” bonded thereto, as examples there may be mentioned straight-chain or branched-chain groups such as methylsulfinyl, ethylsulfinyl, propylsulfinyl, isopropylsulfinyl, […], isobutylsulfinyl, s-butylsulfinyl, t-butylsulfinyl, pentylsulfinyl, isopentylsulfinyl, 2-methylbutylsulfinyl, neopentylsulfinyl, 1-ethylpropylsulfinyl, hexylsulfinyl, isohexylsulfinyl, 4-methylpentylsulfinyl, 3-methylpentylsulfinyl, 2-methylpentylsulfinyl, 1-methylpentylsulfinyl, 3,3-dimethylbutylsulfinyl, 2,2-dimethylbutylsulfinyl, 1,1-dimethylbutylsulfinyl, 1,2-dimethylbutylsulfinyl, 1,3-dimethylbutylsulfinyl, 2,3-dimethylbutylsulfinyl, 1-ethylbutylsulfinyl or 2-ethylbutylsulfinyl, among which C1-4 groups are preferred, and methylsulfinyl or ethylsulfinyl is particularly preferred.

[3] = test system: colon-infiltrating neutrophils (myeloperoxidase enzyme activity); assay: Oxazolone-induced colon neutrophil infiltration model (colon myeloperoxidase activity); assay type: in vivo; conditions: myeloperoxidase enzyme activity inhibitory rate vs oxazolone control group; 30 mg/kg orally 30 minutes prior to intrarectal challenge; colon 4 hours after challenge; male Balb/c mice
Source text: The “di(C1-6 alkyl)amino” of Group D1 may be either symmetric or asymmetric, and as examples there may be mentioned straight-chain or branched-chain groups such as dimethylamino, methylethylamino, diethylamino, methylpropylamino, ethylpropylamino, dipropylamino, diisopropylamino, dibutylamino, diisobutylamino, di(s-butyl)amino, di(t-butyl)amino, methylpentylamino, dipentylamino, diisopentylamino, di(2-methylbutyl)amino, di(neopentyl)amino, di(1-ethylpropyl)amino, dihexylamino, methylisohexylamino, diisohexylamino, di(4-methylpentyl)amino, di(3-methylpentyl)amino, di(2-methylpentyl)amino, di(1-methylpentyl)amino, di(3,3-dimethylbutyl)amino, di(2,2-dimethylbutyl)amino, di(1,1-dimethylbutyl)amino, di(1,2-dimethylbutyl)amino, di(1,3-dimethylbutyl)amino, di(2,3-dimethylbutyl)amino, di(1-ethylbutyl)amino or di(2-ethylbutyl)amino, among which dimethylamino, methylethylamino or diethylamino is preferred, and dimethylamino is particularly preferred.
The “C2-7 alkylcarbonylamino” of Group D1 is an amino group having the aforementioned “C2-7 alkylcarbonyl” bonded thereto, and as examples there may be mentioned straight-chain or branched-chain groups such as acetylamino, ethylcarbonylamino, n-propylcarbonylamino, isopropylcarbonylamino, n-butylcarbonylamino, isobutylcarbonylamino, s-butylcarbonylamino, t-butylcarbonylamino, pentylcarbonylamino, isopentylcarbonylamino, 2-methylbutylcarbonylamino, neopentylcarbonylamino, 1-ethylpropylcarbonylamino, hexylcarbonylamino, isohexylcarbonylamino, 4-methylpentylcarbonylamino, 3-methylpentylcarbonylamino, 2-methylpentylcarbonylamino, 1-methylpentylcarbonylamino, 3,3-dimethylbutylcarbonylamino, 2,2-dimethylbutylcarbonylamino, 1,1-dimethylbutylcarbonylamino, 1,2-dimethylbutylcarbonylamino, 1,3-dimethylbutylcarbonylamino, 2,3-dimethylbutylcarbonylamino, 1-ethylbutylcarbonylamino or 2-ethylbutylcarbonylamino, among which amino groups having C2-5 alkylcarbonyl bonded thereto are preferred, and acetylamino or ethylcarbonylamino is particularly preferred.
As examples of the “3- to 8-membered cycloalkyl” of the “3- to 8-membered cycloalkyl optionally substituted with a substituent selected from Group H1” of Group D1 and the “3- to 8-membered cycloalkyl” of Group D2 (mentioned below) there may be mentioned the same ones listed above, among which cyclopropyl, cyclobutyl, cyclopentyl or cyclohexyl is preferred, cyclopropyl or cyclobutyl is more preferred, and cyclopropyl is most preferred.
As exampled of the “C2-7 alkoxycarbonyl” of Group D1 there may be mentioned the same ones listed above, among which methoxycarbonyl or ethoxycarbonyl is preferred. […]

Row | SMILES | IC50 [1] [µM] | IC50 [2] [µM] | Ihibitory Rate (%) [3] [%]
1 | CCCCN1CCN(c2cc3c(cc2C2CCC(C(C)(C)C)CC2)N(C)C(=O)CO3)CC1 (centres unmarked) [Example 6, 6-(4-t-Butylcyclohexyl)-7-(4-butylpiperazin-1-yl)-4-methyl-4H-benzo[1,4]oxazin-3-one] | 2.9 | 11.7 | 48.0
2 | CCCCN1CCN(c2c(NC3CCOCC3)cccc2C2=CCC(C(C)(C)C)CC2)CC1.Cl (racemic) [Example 5, [3-(4-t-Butylcyclohex-1-enyl)-2-(4-butylpiperazin-1-yl)phenyl](tetrahydropyran-4-yl)amine hydrochloride] | 2.9 | 11 | 3.0
3 | CCCCN1CCN(c2ccc(N3CCC4(CC3)OCCO4)cc2C2CCC(C(C)(C)C)CC2)CC1.Cl (centres unmarked) [Example 134] | – | – | 18.0
4 | CCCCN1CCN(c2cc3c(cc2C2CCC(C(C)(C)C)CC2)N(C)CCO3)CC1.Cl (centres unmarked) [Example 7, 6-(4-t-Butylcyclohexyl)-7-(4-butylpiperazin-1-yl)-4-methyl-3,4-dihydro-2H-benzo[1,4]oxazine hydrochloride] | 4.9 | 17.4 | 24.0
5 | CCCCN1CCN(c2cc3c(cc2C2CC(C)(C)CC(C)(C)C2)OCO3)CC1 [Example 14, 1-Butyl-4-[6-(3,3,5,5-tetramethylcyclohexyl)benzo[1,3]dioxol-5-yl]piperazine hydrochloride] | 7.1 | 22.4 | –
6 | CCCN1CCN(c2ccc(OCCOC)cc2C2CC(C)(C)CC(C)(C)C2)CC1 [Example 12, 1-[4-(2-Methoxyethoxy)-2-(3,3,5,5-tetramethylcyclohexyl)phenyl]-4-propylpiperazine hydrochloride] | 14.7 | 12.5 | –
